Where “and” joins values, the source holds several entries; their conditions need not be identical. Equal entries are not always repeated. Where two headings read alike, the source gives them in different places.
Tests used:
Pyrenophora teres = assay: In vivo preventive test on Pyrenophora teres (barley); conditions: 500 ppm of active ingredient, evaluated 7-9 days after inoculation
Description: (§1) Solvent: 49 parts by weight of N,N-dimethylformamide Emulsifier: 1 part by weight of alkylaryl polyglycol ether To produce a suitable preparation of active compound, 1 part by weight of active compound is mixed with the stated amounts of solvent and emulsifier, and the concentrate is diluted with water to the desired concentration. To test for preventive activity, young plants are sprayed with the preparation of active compound at the stated rate of application. One day after this treatment, the plants are inoculated with an aqueous spore suspension of Pyrenophora teres.

[1] = system: aflatoxines produced by Aspergillus parasiticus; assay: microbe, parasite or virus in culture; format: cell-based
Alternaria solani = assay: In vivo preventive test on Alternaria solani (tomato); conditions: 500 ppm of active ingredient, evaluated 7 days after inoculation
Description: as §1, with “Alkylarylpolyglycolether” for “alkylaryl polyglycol ether”, “Alternaria solani.” for “Pyrenophora teres.”

[2] = log P by HPLC on reversed-phase column (EEC Directive 79/831 Annex V.A8); format: physicochemical
Description: In table 1, the log P values were determined in accordance with EEC Directive 79/831 Annex V.A8 by HPLC (High Performance Liquid Chromatography) on a reversed-phase column (C18), using the method described below: Temperature: 40° C.; […]

Aspergillus parasiticus = assay: microbe, parasite or virus in culture; format: cell-based

Structure (SMILES)	Efficacy (Pyrenophora teres) [%]	% Inhibition of Aflatoxin at 50 μM [1] [%]	Efficacy (Alternaria solani) [%]	logP [2]	% Inhibition of fungal growth at 50 μM (Aspergillus parasiticus) [%]	% Inhibition of fungal growth at 50 μM (Aspergillus parasiticus; 50 µM) [%]	logP ([2]; mixture of two or more isomers, one value per isomer, HPLC reversed-phase C18, 40° C., 0.1% aqueous formic acid and acetonitrile)
Cn1nc(C(F)F)c(C(=O)N(C[Si](C)(C)Cc2ccc(Cl)cc2Cl)C2CC2)c1Cl [Example 297]	100	100	100	5.19	85	–	–
CC(CCc1cc(Cl)cc(Cl)c1)NC(=O)c1c(C(F)F)nn(C)c1F (centres unmarked) [Example 120]	–	100	–	3.83	100	–	–
CCC(CCc1sccc1C)NC(=O)c1c(C(F)F)nn(C)c1Cl (centres unmarked) [Example 78]	–	83	–	3.48	65	–	–
CC(C)CC(C)C1CCCC1NC(=O)c1c(C(F)F)nn(C)c1F (single isomer, unassigned) [Example 317]	–	100	–	4.22 isomer B	–	90	–
CC(COc1ccc(Cl)cc1Cl)N(C(=O)c1c(C(F)F)nn(C)c1Cl)C1CC1 (centres unmarked) [Example 188]	100	–	100	4.41	–	–	–
CC(CCc1ccccc1)NC(=O)c1c(C(F)F)nn(C)c1Cl (centres unmarked) [Example 11]	100	–	95	3.04	–	–	–
Cc1ccsc1CCC(C)NC(=O)c1c(C(F)F)nn(C)c1Cl (centres unmarked) [Example 76]	–	100	–	3.17	83	–	–
CC(CNC(=O)c1c(C(F)F)nn(C)c1Cl)Cc1c(F)cccc1F (centres unmarked) [Example 158]	95	–	80	3.21	–	–	–
Cn1nc(C(F)F)c(C(=O)NC(C)(C)CCc2cc(Cl)ccc2Cl)c1Cl [Example 177]	100	–	100	4.49	–	–	–
Cn1nc(C(F)F)c(C(=O)NCCOc2cc(Cl)ccc2Cl)c1F [Example 169]	–	100	90	3.11	84	–	–
Cn1nc(C(F)F)c(C(=O)NC(COc2ccc3ccccc3c2)C2CC2)c1F (racemic) [Example 137]	89	–	95	3.74	–	–	–
CCC(CCc1sccc1C)NC(=O)c1c(C(F)F)nn(C)c1F (centres unmarked) [Example 79]	–	100	–	3.31	93	–	–
Cn1nc(C(F)F)c(C(=O)NC2(C3CCCCC3)CC2)c1Cl [Example 380]	100	–	95	3.29	–	–	–
Cc1ccsc1CCC(C)NC(=O)c1c(C(F)F)nn(C)c1F (centres unmarked) [Example 77]	–	100	–	3.02	98	–	–
Cn1nc(C(F)F)c(C(=O)NCCOc2c(Cl)cc(Cl)cc2Cl)c1F [Example 202]	80	100	–	3.60	84	–	–
CSC1CCCCC1N(C(=O)c1c(C(F)F)nn(C)c1F)C1CC1 (centres unmarked) [Example 351]	–	100	–	3.50	100	–	–
CC1CCCC(Cc2cccc(Cl)c2)C1NC(=O)c1c(C(F)F)nn(C)c1F (mixture of isomers) [Example 255]	–	100	–	–	90	–	4.31 and 4.44 and 4.54
CC(CNC(=O)c1c(C(F)F)nn(C)c1Cl)Cc1ccc(Cl)c(Cl)c1 (racemic) [Example 127]	100	–	90	3.87	–	–	–
CC(CNC(=O)c1c(C(F)F)nn(C)c1Cl)Cc1cc(Cl)ccc1Cl (centres unmarked) [Example 164]	100	–	95	3.87	–	–	–
CC(CCc1ccc(Cl)cc1Cl)NC(=O)c1c(C(F)F)nn(C)c1Cl (centres unmarked) [Example 185]	–	100	–	3.99	89	–	–
CC(CCc1cc(Cl)ccc1Cl)NC(=O)c1c(C(F)F)nn(C)c1Cl (centres unmarked) [Example 171]	100	–	95	3.87	–	–	–
Cn1nc(C(F)F)c(C(=O)N(C[Si](C)(C)Cc2cc(Cl)cc(Cl)c2)C2CC2)c1Cl [Example 292]	–	100	–	5.14	86	–	–
CC(CCc1cc(Cl)cc(Cl)c1)NC(=O)c1c(C(F)F)nn(C)c1Cl (centres unmarked) [Example 119]	–	95	–	4.01	77	–	–
Cn1nc(C(F)F)c(C(=O)NC(C)(C)CCc2cccc(Cl)c2)c1F [Example 84]	95	–	95	3.83	–	–	–

Structure (SMILES)	Efficacy (Pyrenophora teres) [%]	% Inhibition of Aflatoxin at 50 μM [1] [%]	Efficacy (Alternaria solani) [%]	logP [2]	% Inhibition of fungal growth at 50 μM (Aspergillus parasiticus) [%]	% Inhibition of fungal growth at 50 μM (Aspergillus parasiticus; 50 µM) [%]	logP ([2]; mixture of two or more isomers, one value per isomer, HPLC reversed-phase C18, 40° C., 0.1% aqueous formic acid and acetonitrile)
CN(C(=O)c1c(C(F)F)nn(C)c1F)C(CSCc1ccccc1)C1CC1 (centres unmarked) [Example 225]	–	100	95	3.46	85	–	–
Cc1cccc(C)c1OCC(C)N(C(=O)c1c(C(F)F)nn(C)c1Cl)C1CC1 (centres unmarked) [Example 156]	95	–	80	4.15	–	–	–
Cn1nc(C(F)F)c(C(=O)NCC(Sc2ccc(Cl)cc2)C(F)(F)F)c1F (centres unmarked) [Example 46]	100	–	100	3.73	–	–	–
Cc1cccc(C)c1CC(C)CNC(=O)c1c(C(F)F)nn(C)c1Cl (racemic) [Example 149]	95	–	90	3.63	–	–	–
CN(CCN(C)c1cccc(Cl)c1)C(=O)c1c(C(F)F)nn(C)c1F [Example 82]	–	100	95	3.02	100	–	–
Cn1nc(C(F)F)c(C(=O)N(CCOc2c(Cl)cc(Cl)cc2Cl)C2COC2)c1F [Example 210]	90	–	70	3.42	–	–	–
CSC1CCCCC1N(C(=O)c1c(C(F)F)nn(C)c1Cl)C1CC1 (centres unmarked) [Example 352]	–	99	–	3.73	85	–	–
CN(CCCc1ccccc1)C(=O)c1c(C(F)F)nn(C)c1F [Example 6]	70	–	95	2.73	–	–	–
CN(c1ccc(Oc2ccccc2)cc1)C(CNC(=O)c1c(C(F)F)nn(C)c1Cl)C(F)(F)F (centres unmarked) [Example 32]	70	–	95	4.27	–	–	–
CN(C(=O)c1c(C(F)F)nn(C)c1F)C(COc1ccccc1)C1CC1 (centres unmarked) [Example 21]	80	–	90	3.08	–	–	–
Cc1ccc(SCC(C2CC2)N(C)C(=O)c2c(C(F)F)nn(C)c2F)cc1 (centres unmarked) [Example 40]	80	–	95	3.64	–	–	–
CC(CCc1ccccc1)NC(=O)c1c(C(F)F)nn(C)c1F (centres unmarked) [Example 12]	100	–	95	2.88	–	–	–
CCN(C(=O)c1c(C(F)F)nn(C)c1F)C(C)COc1ccc(C)cc1 (centres unmarked) [Example 38]	80	–	80	3.27	–	–	–
CC(CNC(=O)c1c(C(F)F)nn(C)c1Cl)Cc1cc(Cl)cc(Cl)c1 (centres unmarked) [Example 115]	100	–	90	4.04	–	–	–
Cn1nc(C(F)F)c(C(=O)NC(C)(C)CCc2ccc(Cl)c(Cl)c2)c1F [Example 134]	–	100	–	4.21	79	–	–
CN(c1ccc(Oc2ccccc2)cc1)C(CNC(=O)c1c(C(F)F)nn(C)c1F)C(F)(F)F (centres unmarked) [Example 33]	95	–	95	4.16	–	–	–
CCC(COc1cc(C)cc(C)n1)NC(=O)c1c(C(F)F)nn(C)c1Cl (centres unmarked) [Example 67]	100	–	70	2.14	–	–	–
CC(COc1ccccc1)N(C)C(=O)c1c(C(F)F)nn(C)c1F (centres unmarked) [Example 16]	90	–	90	2.62	–	–	–
Cn1nc(C(F)F)c(C(=O)NC(C)(C)CCc2cccc(Cl)c2)c1Cl [Example 83]	95	–	95	4.01	–	–	–
CN(C(=O)c1c(C(F)F)nn(C)c1F)C(COc1ccccc1Cl)C1CC1 (racemic) [Example 145]	70	–	70	3.44	–	–	–
CN(CCN(C)c1cccc(Cl)c1)C(=O)c1c(C(F)F)nn(C)c1Cl [Example 81]	–	97	90	3.19	80	–	–
Cn1nc(C(F)F)c(C(=O)NCCOc2cc(Cl)cc(Cl)c2)c1F [Example 117]	78	99	–	3.35	81	–	–
Cn1nc(C(F)F)c(C(=O)NCC2CCCC(C(F)(F)F)C2)c1F (centres unmarked) [Example 379]	100	–	95	2.96	–	–	–
